# System: Donor 1 GMA Expanded T-Cell Lines (222-AG11, 222-AG12, 222-BA11, 222-BC11)
# Experiment: ATP proliferation assay (CellTiter Glo), Donor 1 GMA expanded T-cell lines, incl. reactivity to non-canonical GA peptides
# Assay type: cell-based, human
# Conditions: for Proliferation (luminescent ATP assay), Mean: T-cell line 222-AG12, autologous B-LCL; for Non-Canonical Peptide Non-Reactivity: 222-AG12, proliferation <2 times no antigen control; for Nonreactive T-Cell Line: Donor 1 GMA expanded lines, stimulation with the non-canonical GA peptide
# Procedure: Proliferation was evaluated by measuring ATP content using a luminescent method (CellTiter Glo Luminescent Cell Viability Assay, Promega, Madison, Wis., cat. #G7571) or by measuring BrdU uptake by ELISA (Millipore cat. #2752), in both cases following kit instructions. A split well format was used. Cells in each well were resuspended and 65 μl transferred to the wells of each of two new U-bottom 96-well plates, to generate the replicate plates. For the initial screening, the original 96-well plate received mitomycin-treated autologous PBMC as APC plus 10 μg/mL antigen (GA). A first replicate plate received 100 μl., mitomycin-treated PBMC alone (2×10^5), and no antigen, and a second replicate plate received 100 μL mitomycin-treated PBMC plus GA at a final concentration of 10 μg/mL. Therefore, all three plates received autologous APC (PBMC) treated with mitomycin C to prevent cell division. […] The latter two plates were incubated for 3 days at 37° C., 6% CO2 before adding CellTiter Glo or BrdU and measuring signal. IL-2 was added at 10 U/mL to the original 96-well plate for expansion on Day 17. For subsequent screenings, mitomycin-treated EBV-transformed autologous B-LCL (2×10^5 to 5×10^5 cells/mL) were used as APC.
# On Day 24, cells from the wells corresponding to the eight presumptive GA-specific human T-cell lines listed in Table 4 were transferred to a 24-well plate and expanded by stimulating with 10 μg/mL GMA and mitomycin-treated autologous PBMC as APC (3×10^6 per well, i.e., 1.5×10^6/mL). On Day 32 four of the eight lines, 222-BA11, 222-BC11, 222-AG11, and 222-AG12, were stimulated with 0, 1, 10 and 100 μg/mL GMA and tested in a 96-well plate for a proliferative response to GMA using an ATP assay, again using autologous PBMC as APC (2×10^5 per well, i.e., 1×10^6/mL). […] FIGS. 2A and B show the results of the ATP proliferation assay carried out using 222-AG12, 222-BC11, 222-AG11, and 222-BA11 at Day 35 (control=no antigen). FIGS. 3A-C compare the results of ATP proliferation assays carried out after stimulation with varying concentrations of GMA or Copaxone as indicated, using cell lines 222-BA11, 222-BC11, and 222-AG12.
# Donor 1 GMA T-cell line 222-AG12 was assayed for proliferation following stimulation with 0, 1, 10, and 30 μg/mL each of peptides GLT 631, GAT 631, GAT 111, LT 11, GT 11, GL 14, COP, and GMA, at a T-cell concentration of 2×10^5 cells/mL, in the presence of mitomycin C-treated autologous B-LCL. Line 222-AG12 was assayed after 3 rounds of restimulation (4 total stimulations). Proliferation was measured by luminescent ATP assay.
substance,measurement,setting,value
glatiramer acetate [COP],"Proliferation (luminescent ATP assay), Mean",1 ug/mL antigen,10056 RLU
same,"Proliferation (luminescent ATP assay), Mean",10 ug/mL antigen,233083 RLU
same,"Proliferation (luminescent ATP assay), Mean",30 ug/mL antigen,227055 RLU
glatiramer acetate [GMA],"proliferative response relative to control, dose comparison","222-BA11, 222-BC11, 222-AG11, 222-AG12, Day 32, 0, 1, 10, 100 μg/mL",best proliferative response relative to control was observed in the cells stimulated with 10 μg/mL
poly (Glu-Ala-Tyr; 1:1:1) [GAT 111],Non-Canonical Peptide Non-Reactivity,,GAT 111
same,Nonreactive T-Cell Line,,222-AG12 (Donor 1)
same,"Proliferation (luminescent ATP assay), Mean",1 ug/mL antigen,3391 RLU
same,"Proliferation (luminescent ATP assay), Mean",10 ug/mL antigen,2568 RLU
same,"Proliferation (luminescent ATP assay), Mean",30 ug/mL antigen,2245 RLU
poly (Glu-Ala-Tyr; 6:3:1) [GAT 631],Non-Canonical Peptide Non-Reactivity,,GAT 631
same,Nonreactive T-Cell Line,,222-AG12 (Donor 1)
same,"Proliferation (luminescent ATP assay), Mean",1 ug/mL antigen,3442 RLU
same,"Proliferation (luminescent ATP assay), Mean",10 ug/mL antigen,3217 RLU
same,"Proliferation (luminescent ATP assay), Mean",30 ug/mL antigen,3548 RLU
poly (Glu-Lys-Tyr; 6:3:1) [GLT 631],Non-Canonical Peptide Non-Reactivity,,GLT 631
same,Nonreactive T-Cell Line,,222-AG12 (Donor 1)
same,"Proliferation (luminescent ATP assay), Mean",1 ug/mL antigen,3801 RLU
same,"Proliferation (luminescent ATP assay), Mean",10 ug/mL antigen,4002 RLU
same,"Proliferation (luminescent ATP assay), Mean",30 ug/mL antigen,5292 RLU
poly (Glu-Lys; 1:4) [GL 14],Non-Canonical Peptide Non-Reactivity,,GL 14
same,Nonreactive T-Cell Line,,222-AG12 (Donor 1)
same,"Proliferation (luminescent ATP assay), Mean",1 ug/mL antigen,3531 RLU
same,"Proliferation (luminescent ATP assay), Mean",10 ug/mL antigen,55 RLU
same,"Proliferation (luminescent ATP assay), Mean",30 ug/mL antigen,43 RLU
poly (Glu-Tyr; 1:1) [GT 11],Non-Canonical Peptide Non-Reactivity,,GT 11
same,Nonreactive T-Cell Line,,222-AG12 (Donor 1)
same,"Proliferation (luminescent ATP assay), Mean",1 ug/mL antigen,2650 RLU
same,"Proliferation (luminescent ATP assay), Mean",10 ug/mL antigen,3285 RLU
same,"Proliferation (luminescent ATP assay), Mean",30 ug/mL antigen,2231 RLU
poly (Lys-Tyr; 1:1) [LT 11],Non-Canonical Peptide Non-Reactivity,,LT 11
same,Nonreactive T-Cell Line,,222-AG12 (Donor 1)
same,"Proliferation (luminescent ATP assay), Mean",1 ug/mL antigen,3452 RLU
same,"Proliferation (luminescent ATP assay), Mean",10 ug/mL antigen,4242 RLU
same,"Proliferation (luminescent ATP assay), Mean",30 ug/mL antigen,2347 RLU

# Source: US9995734B2, “Human T cell line assay for evaluating the immunologic identity of glatiramer acetate preparations” (Mylan Inc., priority 2013, dated 2018)
